Laboratory results from US9926324B2, “Heteroaromatic compounds as PI3 kinase modulators and methods of use” (Calitor Sciences, LLC, priority 2012, dated 2018).
Read-outs that look alike come from different tables or passages of the source.

What was measured:
[1] = Pharmacokinetic profiles in rats after intravenous and oral administration; format: in vivo; details: for F: oral dose generally 5 or 10 mg/kg; for AUC(0-t) / half-life / Vd: rat, plasma; for Vd: read-out: Vss
Experimental: The compounds disclosed herein are assessed in pharmacokinetic studies in mice, rats, dogs or monkeys. The compounds are administered as a water solution, 2% HPMC+1% TWEEN® 80 in water solution, 5% DMSO+5% solutol in saline, 4% MC suspension or capsule. For the intravenous administration, the animals are generally given at 1 or 2 mg/kg dose. For the oral (p.o.) dosing, mice and rats are generally given 5 or 10 mg/kg dose, and dogs and monkeys are generally given 10 mg/kg dose. The blood samples (0.3 mL) are drawn at 0.25, 0.5, 1.0, 2.0, 3.0, 4.0, 6.0, 8.0, 12 and 24 h time points or 0.083, 0.25, 0.5, 1.0, 2.0, 4.0, 6.0, 8.0 and 24 h time points and centrifuged at 3,000 or 4000 rpm for 2 to 10 min. The plasma solutions are collected, stored at −20° C. or −70° C. until analyzed by LC/MS/MS as described above.

[2] = Compound stability in human liver microsomes; format: in vitro ADME; details: for half-life at 5 μM / CLint scaled at 5 μM: pH 7.4; for half-life at 5 μM: read-out: Human T1/2; for CLint scaled at 5 μM: human liver microsomes, in vivo CLint extrapolated
Experimental: (§1) Human or rat liver microsomes incubations were conducted in duplicate in polypropylene tubes. The typical incubation mixtures consisted of human or rat liver microsomes (0.5 mg protein/mL), compounds of interest (5 μM) and NADPH (1.0 mM) in a total volume of 200 μL potassium phosphate buffer (PBS, 100 mM, pH=7.4). Compounds were dissolved in DMSO and diluted with PBS such that the final concentration of DMSO was 0.05%. The enzymatic reactions were commenced with the addition of […] after a 3-min preincubation and incubated in a water bath open to the air at 37° C. Reactions were terminated at various time points (0, 5, 10, 15, 30, 60 min) by adding equal volume of ice-cold acetonitrile. The samples were stored at −80° C. until LC/MS/MS assays.
(§2) The concentrations of compounds in the incubation mixtures of human or rat liver microsomes were determined by a LC/MS/MS method. The ranges of the linearity in the concentration range were determined for each tested compounds.
(§3) A parallel incubation was performed using denatured microsomes as the negative control, and reactions were terminated at various time points (0, 15, 60 min) after incubation at 37° C.
(§4) Dextromethorphan (70 μM) was selected as the positive control, and reactions were terminated at various time points (0, 5, 10, 15, 30, 60 min) after incubation at 37° C. Both positive and negative control samples were included in each assay to ensure the integrity of the microsomal incubation system.
(§5) The concentrations of compounds in human or rat liver microsome incubations were plotted as a percentage of the relevant zero time point control for each reaction. The in vivo CLint were extrapolated (ref: Naritomi Y, Terashita S, Kimura S, Suzuki A, Kagayama A, Sugiyama Y. Prediction of human hepatic clearance from in vivo animal experiments and in vitro metabolic studies with liver microsomes from animals and humans. Drug Metabolism and Disposition 2001, 29: 1316-1324).

[3] = Compound stability in rat liver microsomes; format: in vitro ADME; details: for half-life at 5 μM / CLint scaled at 5 μM: pH 7.4; for half-life at 5 μM: read-out: Rat T1/2; for CLint scaled at 5 μM: rat liver microsomes, in vivo CLint extrapolated
Experimental: as §1, §2, §3, §4, §5

PI3K p110α/p85α (h) = biological target: T1, PI3K p110α/p85α (h) (Homo sapiens, UniProt P42336); assay: PI3K p110α/p85α (h) non-radioactive HTRF assay; format: biochemical
T1 construct: purchased Millipore UK Ltd (assay service)
T1 sequence (P42336 whole entry): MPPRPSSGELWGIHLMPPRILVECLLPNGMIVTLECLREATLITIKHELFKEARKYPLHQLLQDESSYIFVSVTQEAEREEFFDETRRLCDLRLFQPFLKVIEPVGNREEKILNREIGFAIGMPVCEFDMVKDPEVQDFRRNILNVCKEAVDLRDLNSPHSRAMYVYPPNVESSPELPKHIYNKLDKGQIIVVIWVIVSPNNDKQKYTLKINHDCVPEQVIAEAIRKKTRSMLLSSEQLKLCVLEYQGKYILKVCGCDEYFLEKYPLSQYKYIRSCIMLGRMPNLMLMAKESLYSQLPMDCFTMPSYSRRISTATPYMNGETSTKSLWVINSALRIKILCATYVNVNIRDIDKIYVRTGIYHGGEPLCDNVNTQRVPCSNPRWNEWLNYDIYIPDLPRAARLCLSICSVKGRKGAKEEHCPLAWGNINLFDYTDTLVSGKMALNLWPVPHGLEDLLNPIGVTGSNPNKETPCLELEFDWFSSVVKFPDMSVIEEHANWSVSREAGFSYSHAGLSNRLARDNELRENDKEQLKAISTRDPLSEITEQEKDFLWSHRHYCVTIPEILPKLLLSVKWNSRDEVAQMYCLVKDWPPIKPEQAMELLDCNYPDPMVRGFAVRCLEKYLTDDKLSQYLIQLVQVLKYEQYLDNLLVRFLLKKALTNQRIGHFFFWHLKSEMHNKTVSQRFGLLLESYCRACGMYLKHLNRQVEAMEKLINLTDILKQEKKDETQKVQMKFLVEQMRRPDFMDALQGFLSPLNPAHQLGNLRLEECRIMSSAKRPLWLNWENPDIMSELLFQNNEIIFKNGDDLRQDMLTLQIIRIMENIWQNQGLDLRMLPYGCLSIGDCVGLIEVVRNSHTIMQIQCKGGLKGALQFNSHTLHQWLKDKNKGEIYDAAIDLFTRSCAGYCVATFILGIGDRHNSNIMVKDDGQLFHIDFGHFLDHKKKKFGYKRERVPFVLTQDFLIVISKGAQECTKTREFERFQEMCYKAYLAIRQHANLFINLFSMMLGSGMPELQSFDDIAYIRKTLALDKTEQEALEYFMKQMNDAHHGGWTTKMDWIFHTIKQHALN
T1 sequence (P27986 whole entry partner): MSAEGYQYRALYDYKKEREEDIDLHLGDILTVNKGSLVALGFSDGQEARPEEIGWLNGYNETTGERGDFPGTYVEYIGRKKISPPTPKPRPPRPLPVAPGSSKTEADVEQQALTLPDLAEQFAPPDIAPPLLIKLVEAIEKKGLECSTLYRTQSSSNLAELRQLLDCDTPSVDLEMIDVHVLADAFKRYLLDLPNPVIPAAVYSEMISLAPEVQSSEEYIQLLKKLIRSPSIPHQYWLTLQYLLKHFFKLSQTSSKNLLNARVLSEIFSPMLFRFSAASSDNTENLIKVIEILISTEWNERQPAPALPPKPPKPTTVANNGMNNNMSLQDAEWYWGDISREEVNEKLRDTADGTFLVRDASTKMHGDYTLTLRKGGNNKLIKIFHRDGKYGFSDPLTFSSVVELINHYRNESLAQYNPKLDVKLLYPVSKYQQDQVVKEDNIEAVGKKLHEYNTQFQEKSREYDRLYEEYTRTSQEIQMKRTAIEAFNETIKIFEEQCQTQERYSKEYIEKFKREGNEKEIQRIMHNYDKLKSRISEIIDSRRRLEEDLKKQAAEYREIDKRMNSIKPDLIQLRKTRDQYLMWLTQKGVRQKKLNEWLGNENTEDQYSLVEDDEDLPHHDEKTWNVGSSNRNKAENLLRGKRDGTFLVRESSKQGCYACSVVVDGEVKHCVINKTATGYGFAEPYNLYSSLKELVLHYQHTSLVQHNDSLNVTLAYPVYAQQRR
Experimental: PI3K p110α/p85α (h) is incubated in assay buffer containing 10 μM phosphatidylinositol 4,5-bisphosphate and MgATP (concentration as required). The reaction is initiated by the addition of the ATP solution. After incubation for 30 minutes at room temperature, the reaction is stopped by the addition of stop solution containing EDTA and biotinylated phosphatidylinositol-3,4,5-trisphosphate. Finally, detection buffer is added, which contains europium-labelled anti-GST monoclonal antibody, GST-tagged GRP1 PH domain and streptavidin allophycocyanin. The plate is then read in timeresolved fluorescence mode and the homogenous time-resolved fluorescence (HTRF) signal is determined according to the formula HTRF=10000×(Em665 nm/Em620 nm).
(§6) The kinase assays described herein were performed at Millipore UK Ltd, Dundee Technology Park, Dundee DD2 1SW, UK.

mTOR (h) = biological target: T2, mTOR (h) (Homo sapiens, UniProt P42345); assay: mTOR (h) kinase assay (33P-ATP, filter); format: biochemical
T2 construct: purchased Millipore UK Ltd (assay service)
Experimental: mTOR (h) is incubated with 50 mM HEPES pH 7.5, 1 mM EDTA, 0.01% Tween 20, 2 mg/mL substrate, 3 mM Manganese Chloride and [γ-^33P-ATP] (specific activity approx. 500 cpm/pmol, concentration as required). The reaction is initiated by the addition of the MnATP mix. After incubation for 40 minutes at room temperature, the reaction is stopped by the addition of 3% phosphoric acid solution. 10 μL of the reaction is then spotted onto a P30 filtermat and washed three times for 5 minutes in 75 mM phosphoric acid and once in methanol prior to drying and scintillation counting.
as §6

U87MG glioblastoma cells = assay: Tumor xenograft model (U87MG), tumor growth inhibition; format: in vivo, athymic nude mice; details: 12 days
Experimental: The efficacy of compounds disclosed herein was evaluated in a standard murine model of tumorigenesis. Human tumor cells (U87MG glioblastoma cells from ATCC) were expended in culture, harvested, and injected subcutaneously onto the rear flank of 6-7 week old female athymic nude mice (BALB/cA nu/nu, Hunan SLAC Laboratory Animal, Co.) (n=6-10 for vehicle group and for each dosing group). When tumors reached a volume of 100-250 mm^3, animals were randomly divided into vehicle control (for example, 5% DMSO+70% Captisol® (30%), 7% HCl (pH1), 18% Captisol® (30%); or 7% DMSO, 7% HCl (pH1), 70% Captisol® (30%), 16% Captisol® (30%), or the like) and compound groups. Subsequent administration of compound by oral gavage begins anywhere from day 0 to day 15 post tumor cell challenge and generally continues with once a day for the duration of the experiment.
Progression of tumor growth is assessed by tumor volumes and recorded as a function of time. The long (L) and short (W) axes of the subcutaneous tumors were measured with calipers twice weekly, and the tumor volume (TV) calculated as (L×W^2)/2). TGI was calculated from the difference between the median tumor volumes of vehicle-treated and drug-treated mice, expressed as a percentage of the median tumor volume of the vehicle-treated control group, by the following relation:
Initial statistical analysis is done by repeated measures analysis of variance (RMANOVA), followed by Scheffe psot hoc testing for multiple comparisons. Vehicle alone (5% DMSO+70% Captisol® (30%), 7% HCl (pH1), 18% Captisol® (30%); or 7% DMSO, 7% HCl (pH1), 70% Captisol® (30%), 16% Captisol® (30%), or the like) is the negative control.

[4] = human liver microsomes 0.5 mg protein/mL, compound 5 μM, NADPH 1.0 mM, 37° C.
[5] = rat liver microsomes 0.5 mg protein/mL, compound 5 μM, NADPH 1.0 mM, 37° C.

Row | F ([1]; iv dose 1 mg/kg) | Cl/F ([1]; iv dosing 1 mg/kg) | AUC(0-t) ([1]; iv dosing 1 mg/kg) | half-life ([1]; iv dosing 1 mg/kg) | Vd ([1]; iv dosing 1 mg/kg) | half-life at 5 μM [2, 4] | CLint scaled at 5 μM [2] | half-life at 5 μM [3, 5] | CLint scaled at 5 μM [3] | IC50 (PI3K p110α/p85α (h)) | F ([1]; iv dose 2 mg/kg) | Cl/F ([1]; iv dosing 2 mg/kg) | Compound | further results
1 | 123.1% | 0.5 mL/min/kg | 38700 ng·h/mL | 5.3 h | 0.17 L/kg | 8.53 h | 3.4 mL/min/kg | 4.66 h | 8.87 mL/min/kg |  |  |  | COc1ncc(-c2ccc3ncc(C#CC(C)(C)O)n3c2)cc1NS(=O)(=O)c1ccc(F)cc1F [Ex. 17, 2,4-difluoro-N-(5-(3-(3-hydroxy-3-methylbut-1-yn-1-yl)imidazo[1,2-a]pyridin-6-yl)-2-methoxypyridin-3-yl)benzenesulfonamide] | 
2 | 115.8% | 0.33 mL/min/kg | 40400 ng·h/mL | 4.92 h | 0.15 L/kg |  |  |  |  | 8 nM |  |  | COc1ncc(-c2ccc3ncc(C#CC(C)(C)O)n3n2)cc1NS(=O)(=O)c1ccc(F)cc1F [Ex. 11, 2,4-difluoro N (5 (3 (3 hydroxy-3-methylbut-1-yn-1-yl)imidazo[1,2-b]pyridazin-6-yl)-2-methoxypyridin-3-yl)benzenesulfonamide] | 
3 |  |  |  |  |  | 1.87 h | 15.5 mL/min/kg | 0.666 h | 62.1 mL/min/kg | 41 nM |  |  | COc1ncc(-c2ccc3ncc(C#CC(C)(C)O)n3n2)cc1NS(=O)(=O)c1ccc(F)cc1 [Ex. 4, 4-fluoro-N-(5-(3-(3-hydroxy-3-methylbut-1-yn-1-yl)imidazo[1,2-b]pyridazin-6-yl)-2-methoxypyridin-3-yl)benzenesulfonamide] | IC50 (mTOR (h)): 19 nM
4 | 95.8% | 1.5 mL/min/kg | 11300 ng·h/mL | 3.08 h | 0.32 L/kg | 18.8 h | 1.54 mL/min/kg | 1.59 h | 26.1 mL/min/kg |  |  |  | CC#Cc1cnc2ccc(-c3cnc(OC)c(NS(=O)(=O)c4ccc(F)cc4F)c3)nn12 [Ex. 13, 2,4-difluoro-N-(2-methoxy-5-(3-(prop-1-yn-1-yl)imidazo[1,2-b]pyridazin-6-yl)pyridin-3-yl)benzenesulfonamide] | 
5 |  |  |  |  |  | 8.79 h | 3.3 mL/min/kg | 4.66 h | 8.89 mL/min/kg | 3 nM | 79.88% | 0.5 mL/min/kg | COc1ncc(-c2ccc3ncc(C#CC(C)O)n3n2)cc1NS(=O)(=O)c1ccc(F)cc1F (stereo not shown) [Ex. 10, 2,4-difluoro-N-(5-(3-(3-hydroxybut-1-yn-1-yl)imidazo[1,2-b]pyridazin-6-yl)-2-methoxypyridin-3-yl)benzenesulfonamide] | AUC(0-t) ([1]; iv dosing 2 mg/kg): 67000 ng·h/mL; half-life ([1]; iv dosing 2 mg/kg): 4.27 h; Vd ([1]; iv dosing 2 mg/kg): 0.14 L/kg; TGI % U87MG (U87MG glioblastoma cells; 1 mg/kg oral gavage): 32%; TGI % U87MG (U87MG glioblastoma cells; 3 mg/kg oral gavage): 44%; TGI % U87MG (U87MG glioblastoma cells; 10 mg/kg oral gavage): 65%
6 | 95.6% | 6.17 mL/min/kg | 2550 ng·h/mL | 8.74 h | 2.29 L/kg | 1.14 h | 25.4 mL/min/kg | 0.595 h | 69.5 mL/min/kg | 17 nM |  |  | CC#Cc1cnc2ccc(-c3cnc(OC)c(NS(=O)(=O)c4ccc(F)cc4)c3)nn12 [Ex. 5, 4-fluoro-N-(2-methoxy-5-(3-(prop-1-yn-1-yl)imidazo[1,2-b]pyridazin-6-yl)pyridin-3-yl)benzenesulfonamide] | 
7 | 123.7% | 5.5 mL/min/kg | 2660 ng·h/mL | 3.7 h | 1.25 L/kg |  |  |  |  | 4 nM |  |  | COc1ncc(-c2ccc3ncc(C#N)n3n2)cc1NS(=O)(=O)c1ccc(F)cc1 [Ex. 6, N-(5-(3-cyanoimidazo[1,2-b]pyridazin-6-yl)-2-methoxypyridin-3-yl)-4-fluorobenzenesulfonamide] | TGI % U87MG (U87MG glioblastoma cells; 0.3 mg/kg oral gavage): 14%; TGI % U87MG (U87MG glioblastoma cells; 1 mg/kg oral gavage): 41%; TGI % U87MG (U87MG glioblastoma cells; 3 mg/kg oral gavage): 71%
8 |  |  |  |  |  |  |  |  |  | 20 nM | 95.4% | 0.67 mL/min/kg | C#Cc1cnc2ccc(-c3cnc(Cl)c(NS(=O)(=O)c4ccc(F)cc4)c3)nn12 [Ex. 7, N-(2-chloro-5-(3-ethynylimidazo[1,2-b]pyridazin-6-yl)pyridin-3-yl)-4-fluorobenzenesulfonamide] | IC50 (mTOR (h)): 24 nM; AUC(0-t) ([1]; iv dosing 2 mg/kg): 48100 ng·h/mL; half-life ([1]; iv dosing 2 mg/kg): 3.19 h; Vd ([1]; iv dosing 2 mg/kg): 0.17 L/kg
9 | 5.9% | 30.2 mL/min/kg | 561 ng·h/mL | 0.15 h | 0.19 L/kg |  |  |  |  |  |  |  | COc1ncc(-c2ccc3nnc(C#CC(C)O)n3c2)cc1NS(=O)(=O)c1ccc(F)cc1F (stereo not shown) [Ex. 23, 2,4-difluoro N (5 (3 (3 hydroxybut-1-yn-1-yl)-[1,2,4]-triazolo[4,3-a]pyridin-6-yl)-2-methoxypyridin-3-yl)benzenesulfonamide] | Human T1/2 [2, 4]: ∞; Rat T1/2 [3, 5]: ∞

Row | Compound | F ([1]; iv dose 1 mg/kg) | Cl/F ([1]; iv dosing 1 mg/kg) | AUC(0-t) ([1]; iv dosing 1 mg/kg) | half-life ([1]; iv dosing 1 mg/kg) | Vd ([1]; iv dosing 1 mg/kg) | half-life at 5 μM [2, 4] | CLint scaled at 5 μM [2] | half-life at 5 μM [3, 5] | CLint scaled at 5 μM [3] | IC50 (PI3K p110α/p85α (h)) | F ([1]; iv dose 2 mg/kg) | Cl/F ([1]; iv dosing 2 mg/kg) | further results
10 | 4-fluoro N (5 (3 (3 hydroxy-3-methylbut-1-yn-1-yl)-[1,2,4]-triazolo[4,3-b]pyridazin-6-yl)-2-methoxypyridin-3-yl)benzenesulfonamide [Ex. 12] |  |  |  |  |  |  |  |  |  | 32 nM | 1.3% | 77.8 mL/min/kg | AUClast ([1]; iv dosing 2 mg/kg): 411 ng·h/mL; T1/2 ([1]; iv dosing 2 mg/kg): 4.71 h; Vss ([1]; iv dosing 2 mg/kg): 18.42 L/kg
